Results: US20220233535A1, “USE OF INHIBITORS OF YAP/TAZ FOR THE TREATMENT OF CANCER” (Georgetown University, priority 2019, published 2022)
Structures can show the parent of a compound that is named as a salt.

Legend:
Type in all cases: cell-based
[1] = system: pERK (ERK phosphorylation); experiment: Western blot analysis of pERK levels in SN12C cells treated with inhibitors/compounds; conditions: for pERK levels in shY/T cells with increasing concentrations: HCl 1 h 0-12 mM, BAPTA 3 h 0-13 μM, Baf 3 h 0-0.5 μM; for pERK levels in Ctrl cells: CaCl2 2 hours 0, 0.5, 1, 2 mM (FIG. 7K), bicarbonate (FIG. 8K); for pERK levels in shY/T cells: western blot
Procedure: (§1) Cells were grown for 24 hours in serum-free medium in the presence of various inhibitors unless indicated otherwise. After a brief wash with cold PBS, cells were lysed in urea buffer (9.5 M urea, 2% 3-[(3-cholamidopropyl)dimethylammonio]-1-propanesulfonate (CHAPS)), adjusted to similar concentrations, mixed with 6× sodium dodecyl sulfate (SDS) loading dye, heated at 95° C. for 10 minutes, and subjected to SDS-polyacrylamide gel electrophoresis and semi-dry transferring to polyvinylidene fluoride (PVDF) membranes. For analysis of oxidative phosphorylation (OXPHOS) complexes, 2×10^7 Ctrl and shY/T cells were harvested and either saved as whole cell extract (WCE) or processed using the Mitochondria Isolation Kit for cultured cells according to the manufacturer's instructions (Thermo Fisher Scientific). The WCE and mitochondrial-enriched fraction were resuspended in radioimmunoprecipitation assay (RIPA) buffer for western blot analysis.

[2] = system: Ctrl and shY/T SN12C cells; experiment: Nutrient deprivation experiments, percent change in RFP fluorescence (proliferation and survival); conditions: 3 days; for proliferation under nutrient-replete conditions: Ctrl and shY/T SN12C; for proliferation under nutrient-replete conditions / Glc- and Gln-starvation-induced cell death in shY/T cells: GSH 0.3 mM or EGF 1 μg/ml; for Glc- and Gln-starvation-induced cell death in shY/T cells: shY/T SN12C
Procedure: For SN12C cells, all medium in nutrient deprivation studies contained a base of RPMI salt mix (0.42 mM Ca(NO3)2.4H2O, 0.41 mM MgSO4, 5.4 mM KCl, 23.8 mM NaHCO3, 102.7 mM NaCl, and 5.6 mM Na2HPO4), RPMI 1640 vitamins solution (Millipore Sigma, St. Louis, Mo.), MEM amino acids solution (ThermoFisher Scientific), and MEM non-essential amino acids solution (Sigma). Nutrient replete conditions received 11.1 mM glucose (Millipore Sigma) and 2 mM glutamine (Lonza, Benicia, Calif.) and deprivation conditions lacked or contain reduced amount of their respective nutrient as indicated. For SC4 cells, all medium in nutrient deprivation studies contained a base of DMEM without glucose or glutamine (#D5030, Millipore Sigma) and supplemented with sodium pyruvate and sodium bicarbonate to levels in standard DMEM formulation. For conditions with glucose or glutamine, 5.6 mM glucose (Millipore Sigma) and/or 4 mM glutamine (Lonza) were added. Reduced cellular glutathione (GSH) (Alfa Aesar, Haverhill, Mass.) and epidermal growth factor (EGF) (Millipore Sigma) were used at final concentrations of 0.3 mM and 1 μg/ml, respectively. Percent survival was calculated based on the sequential measurements of red fluorescent protein (RFP) fluorescence (filter range 553-574 nm) at the initiation and end of treatment using the Synergy™ Hybrid Multi-Mode Microplate Reader (BioTek, Winooski, Vt.). A one-way ANOVA with Sidak's multiple comparison test was used to calculate significance for all nutrient deprivation experiments.

[3] = system: pAKT (AKT phosphorylation); experiment: Western blot analysis of pAKT levels in SN12C cells; conditions: for pAKT levels in Ctrl cells: Ctrl SN12C cells treated overnight, western blot
Procedure: as §1

[4] = system: Ctrl and shY/T SN12C cells; experiment: Lysosome inhibitor treatment of Ctrl and shY/T cells under different nutrient conditions; conditions: bafilomycin 24 hours, chloroquine 3 days, −Glc or −Gln medium
Procedure: Nutrient replete conditions received 11.1 mM glucose (Millipore Sigma) and 2 mM glutamine (Lonza, Benicia, Calif.) and deprivation conditions lacked or contain reduced amount of their respective nutrient as indicated. For SC4 cells, all medium in nutrient deprivation studies contained a base of DMEM without glucose or glutamine (#D5030, Millipore Sigma) and supplemented with sodium pyruvate and sodium bicarbonate to levels in standard DMEM formulation. For conditions with glucose or glutamine, 5.6 mM glucose (Millipore Sigma) and/or 4 mM glutamine (Lonza) were added. […] Percent survival was calculated based on the sequential measurements of red fluorescent protein (RFP) fluorescence (filter range 553-574 nm) at the initiation and end of treatment using the Synergy™ Hybrid Multi-Mode Microplate Reader (BioTek, Winooski, Vt.). […]
Cells were plated at optimized seeding densities to reach 60-70% confluence on the next day, at which point the media were replaced with serum-free medium containing Dox and serially diluted compounds or vehicle control. […] After incubation for indicated time, cell viability was measured using the CellTiter-Glo Luminescence Cell Viability assay (Promega) or ATPlite Luminescence Assay (Perkin Elmer) for FIG. 1B. Percent viability for each cell lines was calculated based on vehicle control.

shY/T SN12C cells [5] = experiment: Media pH measurements; conditions: shY/T SN12C grown overnight with 0 or 0.3 μM bafilomycin
Procedure: Cells were plated at the same time with optimized seeding densities that ensure all cell lines to reach 80% confluence at the time of measurement. Medium supernatant was collected and measured using the Thermo Scientific™ Orion™ 3-Star Benchtop pH Meter after calibration.

shY/T SN12C cells [6] = experiment: Intracellular calcium assay; conditions: shY/T SN12C grown overnight with 0 or 0.3 μM bafilomycin
Procedure: Cells were grown for indicated time in serum-free medium, washed with ice-cold PBS, collected in 100 mM Tris pH 7.5 buffer using cell scraper, and processed using the Calcium Assay Kit (Cayman Chemicals) according to the manufacturer's instructions. The calcium concentrations were normalized to the protein concentrations determined using Bradford Protein Assay (Bio-Rad).

[7] = shY/T SN12C cells treated overnight

## O=C(O)CN(CC(=O)O)c1ccccc1OCCOc1ccccc1N(CC(=O)O)CC(=O)O [BAPTA]
[1]; shY/T SN12C
  pERK levels in shY/T cells with increasing concentrations: reduced pERK levels in a dose-dependent manner

## O=C(O)O [Bicarbonate, NaHCO3]
[1]; Ctrl cells
  pERK levels in Ctrl cells: raised pERK levels

## COc1ccc2cc(-c3cc(-c4cc(C(F)(F)F)ccc4F)nn3[C@@H](C)c3ccc(C(=O)NCCC(=O)O)cc3)ccc2c1 [GRA-1]
[1]; [7]
  pERK levels in shY/T cells: none of the GPCR inhibitors reduced ERK phosphorylation

## N[C@@H](CCC(=O)N[C@@H](CS)C(=O)NCC(=O)O)C(=O)O [GSH, glutathione]
[2]; Ctrl SN12C, −Glc or −Gln, GSH 0.3 mM
  Glc- and Gln-starvation-induced cell death in Ctrl cells: had no effect
[2]
  proliferation under nutrient-replete conditions: did not affect the proliferation
[2]; −Glc or −Gln
  Glc- and Gln-starvation-induced cell death in shY/T cells: significantly inhibited

## O=S(=O)(NCCNC/C=C/c1ccc(Br)cc1)c1cccc2cnccc12 [H-89]
[1]; shY/T SN12C cells treated overnight, FIG. 8E
  pERK levels in shY/T cells, combination of PKA inhibitor H-89 and EPAC inhibitor HJC: synergizes with EPAC inhibitor HJC in reducing pERK levels
[1]; [7]
  pERK levels in shY/T cells: specifically inhibited ERK phosphorylation
[3]
  pAKT levels in Ctrl cells: without also blocking pAKT

## Cl [HCl]
[1]; shY/T SN12C
  pERK levels in shY/T cells with increasing concentrations: reduced pERK levels in a dose-dependent manner

## CC(Sc1nc2ccccc2[nH]1)C(=O)N/N=C/c1cc(Br)ccc1O (centres unmarked) [KH7]
[1]; Ctrl cells, bicarbonate plus KH7, FIG. 8K
  bicarbonate-raised pERK levels in Ctrl cells: blocked by KH7
[1]; [7]
  pERK levels in shY/T cells: drastically inhibited pERK levels
[3]
  pAKT levels in Ctrl cells: not pAKT

## CNc1ncc2cc(-c3cc(NC(=O)NCCC(C)(C)C)c(F)cc3C)c(C)nc2n1 [LY3009120]
[1]; [7]
  pERK levels in shY/T cells: inhibited pERK levels
[3]
  pAKT levels in Ctrl cells: did not reduce pAKT levels

## Cl.c1ccc(C2CCCC2NC2=NCCCCCCCCCCC2)cc1 (centres unmarked) [MDL 12330A]
[1]; overnight, FIG. 8K
  ERK phosphorylation, tmAC activator/inhibitor alone or in combination: no effect on ERK phosphorylation

## Nc1ncnc2c1ncn2[C@@H]1O[C@@H]2COP(O)(=S)O[C@H]2[C@H]1O (some centres unmarked) [Rp-cAMP]
[1]; [7]
  pERK levels in shY/T cells: specifically inhibited ERK phosphorylation
[3]
  pAKT levels in Ctrl cells: without affecting pAKT

## CN=c1nc(-c2ccccc2)n(-c2ccccc2)s1 [SCH 202676]
[1]; [7]
  pERK levels in shY/T cells: none of the GPCR inhibitors reduced ERK phosphorylation

## CNC(=O)c1cc(Oc2ccc(NC(=O)Nc3ccc(Cl)c(C(F)(F)F)c3)cc2)ccn1 [Sorafenib]
[1]; [7]
  pERK levels in shY/T cells: inhibited pERK levels
[3]
  pAKT levels in Ctrl cells: did not reduce pAKT levels

## CC(C)NCC(O)c1ccc(NS(C)(=O)=O)cc1 (centres unmarked) [Sotalol]
[1]; [7]
  pERK levels in shY/T cells: none of the GPCR inhibitors reduced ERK phosphorylation

## CO/C1=C\C(C)=C\[C@@H](C)[C@@H](O)[C@@H](C)C/C(C)=C/C=C/[C@H](OC)[C@@H]([C@@H](C)[C@@H](O)[C@H](C)[C@@]2(O)C[C@@H](O)[C@H](C)[C@@H](C(C)C)O2)OC1=O [bafilomycin]
[4]
  sensitivity of NF2-mutant cells to lysosomal inhibition upon YAP/TAZ depletion: increased the sensitivity of NF2-mutant cells to lysosomal inhibition, especially under nutrient-deprived conditions
shY/T SN12C cells [5]
  media pH: significantly reduced pH
shY/T SN12C cells [6]
  intracellular calcium concentration: significantly reduced pH and calcium levels
[1]; shY/T SN12C, 3 h, 0.3 μM Baf and/or 25 mM NaHCO3
  bafilomycin-mediated ERK inhibition with exogenous HCO3−: rescued by the addition of exogenous HCO3^−
[1]; shY/T SN12C
  pERK levels in shY/T cells with increasing concentrations: inhibited ERK phosphorylation in a dose-dependent manner

## [Ca+2].[Cl-].[Cl-] [calcium, CaCl2]
[1]; Ctrl cells
  pERK levels in Ctrl cells: increased pERK levels

## CCN(CC)CCCC(C)Nc1ccnc2cc(Cl)ccc12 (centres unmarked) [chloroquine]
[4]
  sensitivity of NF2-mutant cells to lysosomal inhibition upon YAP/TAZ depletion: increased the sensitivity of NF2-mutant cells to lysosomal inhibition, especially under nutrient-deprived conditions

## EGF: epidermal growth factor (NSDSECPLSHDGYCLHDGVCMYIEALDKYACNCVVGYIGERCQYRDLKWWELR; Epidermal growth factor; UniProt P01133 971-1023, looked up)
[2]
  proliferation under nutrient-replete conditions: allowed shY/T cells to regain the ability to proliferate
[2]; −Glc or −Gln
  Glc- and Gln-starvation-induced cell death in shY/T cells: did not prevent cell death
[3]; shY/T SN12C cells after addition of EGF
  AKT phosphorylation in shY/T cells: partially rescued AKT phosphorylation
